Calls of active or inactive are those of the source. No cut-off for these calls is given here.
How the values were obtained:
[1] = molecular target: T1, Receptor-interacting serine/threonine-protein kinase 1 (Homo sapiens) (UniProt Q13546); assay: Inhibition of RIPK1 phosphorylation in TSZ (TNFalpha, Smac mimetic and z-VAD-FMK) induced-human HT-29 cells assessed as decrease in phosphorylated RIPK1 level at 12 nM pretreated with compound followed by TSZ-induction and measured after 6 hrs by immunoblotting analysis; assay type: cell-based
T1 sequence (whole entry): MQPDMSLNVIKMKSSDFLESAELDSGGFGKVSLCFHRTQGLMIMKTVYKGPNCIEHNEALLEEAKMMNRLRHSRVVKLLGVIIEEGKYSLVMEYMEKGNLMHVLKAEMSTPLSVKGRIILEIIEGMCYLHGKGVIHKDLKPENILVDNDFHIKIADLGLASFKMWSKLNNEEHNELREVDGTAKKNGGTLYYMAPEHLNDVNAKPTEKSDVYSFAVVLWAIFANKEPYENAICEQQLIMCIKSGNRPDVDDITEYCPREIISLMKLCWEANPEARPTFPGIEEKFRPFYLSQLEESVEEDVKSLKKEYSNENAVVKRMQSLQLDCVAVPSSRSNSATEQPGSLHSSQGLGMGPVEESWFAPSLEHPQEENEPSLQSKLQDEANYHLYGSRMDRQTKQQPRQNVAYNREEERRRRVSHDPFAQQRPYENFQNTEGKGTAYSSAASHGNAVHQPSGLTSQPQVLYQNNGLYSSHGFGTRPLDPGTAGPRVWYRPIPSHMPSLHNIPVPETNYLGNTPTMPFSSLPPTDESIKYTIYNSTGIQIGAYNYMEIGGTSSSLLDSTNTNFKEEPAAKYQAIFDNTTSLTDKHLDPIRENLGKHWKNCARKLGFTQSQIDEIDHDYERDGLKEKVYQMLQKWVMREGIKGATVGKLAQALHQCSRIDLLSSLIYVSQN

[2] = molecular target: T2, Receptor-interacting serine/threonine-protein kinase 1 (Homo sapiens, UniProt Q13546); assay: Binding affinity to recombinant RIPK1 (unknown origin) assessed as dissociation constant by kinomescan assay
T2 sequence (Q13546 whole entry): T1 sequence (whole entry)

[3] = molecular target: T3, Mixed lineage kinase domain-like protein (Homo sapiens) (UniProt Q8NB16); assay: Inhibition of MLKL phosphorylation […] (TNFalpha, Smac mimetic and z-VAD-FMK) induced-human HT-29 cells assessed as decrease in phosphorylated MLKL level at 12 nM pretreated with compound followed by TSZ-induction and measured after 6 hrs by immunoblotting analysis; assay type: cell-based
T3 sequence (whole entry): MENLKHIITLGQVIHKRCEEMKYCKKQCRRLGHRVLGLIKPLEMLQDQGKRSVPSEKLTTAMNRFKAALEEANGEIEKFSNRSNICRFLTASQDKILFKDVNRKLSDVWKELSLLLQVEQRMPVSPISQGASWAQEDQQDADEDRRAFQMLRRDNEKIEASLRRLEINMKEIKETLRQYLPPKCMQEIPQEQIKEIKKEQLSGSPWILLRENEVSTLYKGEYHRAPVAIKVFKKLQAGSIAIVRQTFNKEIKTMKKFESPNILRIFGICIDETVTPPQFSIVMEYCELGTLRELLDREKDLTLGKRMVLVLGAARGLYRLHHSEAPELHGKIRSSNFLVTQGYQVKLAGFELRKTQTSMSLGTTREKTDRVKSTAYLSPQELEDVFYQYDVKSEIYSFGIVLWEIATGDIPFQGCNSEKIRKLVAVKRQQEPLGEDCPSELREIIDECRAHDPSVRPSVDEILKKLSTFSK

Mus musculus [4] = assay: Anti-necroptosis activity against TNFalpha-induced C57BL/6 mouse systemic inflammatory response syndrome model assessed as protection of body temperature at 5 to 20 mg/kg, IG pretreated with compound followed by TNFalpha-stimulation and measured after 2 to 3 hrs by thermometer analysis; assay type: functional, organism-based; conditions: dose 5-20 mg/kg, time 2-3 hrs
[5] = molecular target: T3, Mixed lineage kinase domain-like protein (Homo sapiens); assay: Inhibition of MLKL phosphorylation in TSZ (TNFalpha, Smac mimetic and z-VAD-FMK) induced-human HT-29 cells assessed as decrease in phosphorylated MLKL level at 12 nM pretreated with compound followed by TSZ-induction by immunoblotting analysis; assay type: cell-based; conditions: time 2-6 hrs, TDE = time-dependent effect
L929 = assay: Anti-necroptic activity against mouse L929 cells assessed as inhibition of TNFalpha/z-VAD-FMK-induced necroptosis pretreated with compound followed by TNFalpha/z-VAD-FMK-induction and measured after 24 hrs by Cell-titer-glo assay; assay type: functional, cell-based; conditions: dose 0.02-10 µM
HT-29 [6] = assay: Anti-necroptosis activity against human HT-29 cells assessed as inhibition of TSZ-induced necroptosis pretreated with compound followed by TSZ induction and measured for 12 hrs by Cell-titer-glo assay; assay type: functional, cell-based; conditions: dose 0.63-100 nM
[7] = molecular target: T1, Receptor-interacting serine/threonine-protein kinase 1 (Homo sapiens); assay: Inhibition of RIPK1 phosphorylation in TSZ (TNFalpha, Smac mimetic and z-VAD-FMK) induced-human HT-29 cells assessed as decrease in phosphorylated RIPK1 level pretreated with compound followed by TSZ-induction and measured after 6 hrs by immunoblotting analysis; assay type: cell-based; conditions: dose 1.5-12 nM
Mus musculus [8] = assay: Anti-necroptic activity against TNFalpha-induced C57BL/6 mouse systemic inflammatory response syndrome model assessed as protection of body temperature at 20 mg/kg, IG pretreated with compound followed by TNFalpha-stimulation and measured after 2 to 3 hrs by thermometer analysis; assay type: functional, organism-based; conditions: time 2-3 hrs
[9] = molecular target: Receptor-interacting serine/threonine-protein kinase 3 (Homo sapiens) (UniProt Q9Y572); assay: Inhibition of RIPK3 phosphorylation in TSZ (TNFalpha, Smac mimetic and z-VAD-FMK) induced -human HT-29 cells assessed as decrease in phosphorylated RIPK3 level at 12 nM pretreated with compound followed by TSZ-induction by immunoblotting analysis; assay type: cell-based; conditions: time 2-6 hrs, TDE = time-dependent effect
Sequence of Receptor-interacting serine/threonine-protein kinase 3 (Homo sapiens) (Q9Y572 whole entry, looked up, the tested form may be a part): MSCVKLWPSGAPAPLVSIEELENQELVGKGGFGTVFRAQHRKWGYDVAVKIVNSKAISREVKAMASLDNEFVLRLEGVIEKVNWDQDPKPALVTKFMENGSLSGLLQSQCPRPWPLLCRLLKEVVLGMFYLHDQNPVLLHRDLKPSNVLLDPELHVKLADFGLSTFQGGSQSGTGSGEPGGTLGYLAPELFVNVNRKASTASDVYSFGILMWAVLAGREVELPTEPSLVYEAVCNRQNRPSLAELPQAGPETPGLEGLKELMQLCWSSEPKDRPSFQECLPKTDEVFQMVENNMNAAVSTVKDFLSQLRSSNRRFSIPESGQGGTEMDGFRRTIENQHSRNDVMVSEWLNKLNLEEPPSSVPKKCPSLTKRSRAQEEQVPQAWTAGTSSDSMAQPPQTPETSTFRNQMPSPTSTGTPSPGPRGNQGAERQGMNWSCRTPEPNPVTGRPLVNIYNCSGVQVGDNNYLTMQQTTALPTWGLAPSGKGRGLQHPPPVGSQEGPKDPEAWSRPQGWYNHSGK

[10] = molecular target: T3, Mixed lineage kinase domain-like protein (Homo sapiens); assay: Inhibition of MLKL phosphorylation in TSZ (TNFalpha, Smac mimetic and z-VAD-FMK) induced-human HT-29 cells assessed as decrease in phosphorylated MLKL level pretreated with compound followed by TSZ-induction and measured after 6 hrs by immunoblotting analysis; assay type: cell-based; conditions: dose 1.5-12 nM
HT-29 [11] = assay: Inhibition of RIPK1-RIPK3-MLKL pathway in TSZ induced human HT-29 cells assessed as reduction in necrosome formation at 12 nM measured after 6 hrs by Western blot analysis; assay type: cell-based
HT-29 [12] = assay: Anti-necroptic activity in human HT-29 cells assessed as inhibition of TNFalpha and cycloheximide-induced necroptosis pretreated with compound followed by TNFalpha and cycloheximide-induction and measured after 24 hrs by Cell-titer-glo assay; assay type: functional, cell-based
[13] = molecular target: Receptor-interacting serine/threonine-protein kinase 3 (Homo sapiens) (UniProt Q9Y572); assay: Inhibition of RIPK3 phosphorylation in TSZ (TNFalpha, Smac mimetic and z-VAD-FMK) induced-human HT-29 cells assessed as decrease in phosphorylated RIPK3 level pretreated with compound followed by TSZ-induction and measured after 6 hrs by immunoblotting analysis; assay type: cell-based; conditions: dose 1.5-12 nM
HT-29 [14] = assay: Cytotoxicity against human HT-29 cells assessed as reduction in cell viability measured for 16 to 24 hrs by Cell-titer-glo assay; assay type: functional; conditions: time 16-24 hrs
U-937 = assay: Anti-necroptic activity against human U-937 cells assessed as inhibition of TSZ-induced necroptosis at 100 nM pretreated with compound followed by TSZ induction and measured for 12 hrs by Cell-titer-glo assay; assay type: functional, cell-based
Mus musculus [15] = assay: Anti-necroptic activity against mTNFalpha induced C57BL/6 mouse systemic inflammatory response syndrome model assessed as increase in survival rate 5 mg/kg, IG pretreated with compound for 1 hr followed by mTNFalpha injection and measured after 15 mins; assay type: functional; conditions: time 75 min, 1.25 h
Mus musculus [16] = assay: Anti-necroptic activity against mTNFalpha induced C57BL/6 mouse systemic inflammatory response syndrome model assessed as increase in survival rate 10 mg/kg, IG pretreated with compound for 1 hr followed by mTNFalpha injection and measured after 15 mins; assay type: functional; conditions: time 75 min, 1.25 h
Mus musculus [17] = assay: Anti-necroptic activity against TNFalpha-induced C57BL/6 mouse serum assessed as reduction in IL-1beta level at 20 mg/kg, IG pretreated with compound followed by TNFalpha-stimulation for 4 hrs; assay type: functional, organism-based
[18] = molecular target: Receptor-interacting serine/threonine-protein kinase 3 (Homo sapiens) (UniProt Q9Y572); assay: Inhibition of RIPK3 phosphorylation […] (TNFalpha, Smac mimetic and z-VAD-FMK) induced-human HT-29 cells assessed as decrease in phosphorylated RIPK3 level at 12 nM pretreated with compound followed by TSZ-induction and measured after 6 hrs by immunoblotting analysis; assay type: cell-based
[19] = molecular target: T1, Receptor-interacting serine/threonine-protein kinase 1 (Homo sapiens); assay: Inhibition of RIPK1 phosphorylation in TSZ (TNFalpha, Smac mimetic and z-VAD-FMK) induced-human HT-29 cells assessed as decrease in phosphorylated RIPK1 level at 12 nM pretreated with compound followed by TSZ-induction by immunoblotting analysis; assay type: cell-based; conditions: time 6.0 hrs, TDE = time-dependent effect
Mus musculus [20] = assay: Anti-necroptic activity against mTNFalpha induced C57BL/6 mouse systemic inflammatory response syndrome model assessed as increase in survival rate 20 mg/kg, IG pretreated with compound for 1 hr followed by mTNFalpha injection and measured after 15 mins; assay type: functional; conditions: time 75 min, 1.25 h
HT-29 [21] = assay: Anti-necroptosis activity against human HT-29 cells assessed as inhibition of TSZ-induced necroptosis preincubated for 30 mins followed by compound addition and measured for 16 hrs by Cell-titer-glo assay; assay type: functional, cell-based
Mus musculus [22] = assay: Anti-necroptic activity against TNFalpha-induced C57BL/6 mouse serum assessed as reduction in IL-6 level at 20 mg/kg, IG pretreated with compound followed by TNFalpha-stimulation for 4 hrs; assay type: functional, organism-based
Mus musculus [23] = assay: Anti-necroptic activity against mTNFalpha induced C57BL/6 mouse systemic inflammatory response syndrome model assessed as increase in survival rate 20 mg/kg, IG pretreated with compound for 1 hr followed by mTNFalpha injection and measured after 60 mins; assay type: functional; conditions: time 2 hrs
Mus musculus [24] = assay: Anti-necroptic activity against mTNFalpha induced C57BL/6 mouse systemic inflammatory response syndrome model assessed as increase in survival rate 5 mg/kg, IG pretreated with compound for 1 hr followed by mTNFalpha injection and measured after 60 mins; assay type: functional; conditions: time 2 hrs
HT-29 [25] = assay: Cytotoxicity against human HT-29 cells assessed as reduction in cell viability at 100 uM measured for 16 to 24 hrs by Cell-titer-glo assay; assay type: functional, cell-based; conditions: time 16-24 hrs
Mus musculus [26] = assay: Anti-necroptic activity against TNFalpha-induced C57BL/6 mouse serum assessed as reduction in IL-1beta level at 5 mg/kg, IG pretreated with compound followed by TNFalpha-stimulation for 4 hrs; assay type: functional, organism-based
Mus musculus [27] = assay: Anti-necroptic activity against mTNFalpha induced C57BL/6 mouse systemic inflammatory response syndrome model assessed as increase in survival rate 15 mg/kg, IG pretreated with compound for 1 hr followed by mTNFalpha injection and measured after 15 mins; assay type: functional; conditions: time 75 min, 1.25 h
Mus musculus [28] = assay: Anti-necroptic activity against TNFalpha-induced C57BL/6 mouse serum assessed as reduction in IL-6 level at 5 mg/kg, IG pretreated with compound followed by TNFalpha-stimulation for 4 hrs; assay type: functional, organism-based

Structure (SMILES) | inhibition [1] | Kd [2] | inhibition [3] | Activity (Mus musculus [4]) | inhibition [5] | Activity (L929) | inhibition [7] | Activity (Mus musculus [8]) | inhibition [9] | inhibition [10] | inhibition (HT-29 [11]) | Activity (HT-29 [12]) | inhibition [13] | CC50 (HT-29 [14]) | Activity (U-937) | Activity (Mus musculus [15]) | Activity (Mus musculus [16]) | inhibition [18] | inhibition [19] | EC50 (HT-29 [21]) | other results
C#Cc1ccc2c(c1)N(C)C(=S)[C@@H](NC(=O)c1n[nH]c(Cc3ccccc3)n1)CO2 | Active | 9.7 nM | Active | Active | Tde | Dose-Dependent Effect | Dose-Dependent Effect | Active | Tde | Dose-Dependent Effect | Active | inactive | Dose-Dependent Effect | > 100000 nM | Active | 66% | 83% | Active | Tde | 3.7 nM | Activity (HT-29 [6]): Dose-Dependent Effect; Activity (Mus musculus [17]): Active; Activity (Mus musculus [20]): 100%; Activity (Mus musculus [22]): Active
CN1C(=O)[C@@H](NC(=O)c2n[nH]c(Cc3ccccc3)n2)COc2ccccc21 [GSK2982772] | – | – | – | Active | – | – | – | – | – | – | – | – | – | > 100000 nM | – | – | – | – | – | – | Activity (Mus musculus [23]): 92%; Activity (Mus musculus [24]): 50%
CN1C(=S)[C@@H](NC(=O)c2n[nH]c(Cc3ccccc3)n2)COc2ccc(C#Cc3cccc(C#N)c3)cc21 | Active | 70 nM | Active | – | Tde | Dose-Dependent Effect | Dose-Dependent Effect | Active | Tde | Dose-Dependent Effect | Active | inactive | Dose-Dependent Effect | > 100000 nM | Active | 58% | 83% | Active | Tde | 3.2 nM | Activity (HT-29 [25]): inactive; Activity (Mus musculus [26]): Active; Activity (Mus musculus [27]): 100%; Activity (Mus musculus [28]): Active

From ChEMBL document CHEMBL5316334, “Structure-Based Design of Novel Alkynyl Thio-Benzoxazepinone Receptor-Interacting Protein Kinase-1 Inhibitors: Extending the Chemical Space from the Allosteric to ATP Binding Pockets” (J Med Chem, 2023)
